Data: patent US8067455B2, “Amino acid derived prodrugs of propofol, compositions, uses and crystalline forms thereof” (XenoPort, Inc., priority 2004, dated 2011)
Where two headings read alike, the source gives them in different places.

Tests used:
[1] = Solubility of compound (6) in water and PBS; assay type: physicochemical
Method: (§1) The hydrochloride (3.42 g, 9.89 mmol) was crystallized by dissolution in a mixture of ethanol and toluene (1/10 v/v, 110 mL) at 80° C. and the mixture allowed to cool to room temperature. Large needle-like crystals started to form after standing at room temperature for 48 h. The solution was filtered after standing for 7 days at room temperature. The product (6) was isolated as a white crystalline solid (2.7 g, 79% yield). ^1H-NMR (400 MHz, CD3OD): δ 7.16-7.24 (m, 3H), 4.81-4.85 (dd, J=12.4, 4.4 Hz, 1H), 4.59-4.63 (dd, J=12.0 Hz, 3.2 Hz, 1H), 4.45-4.49 (dd, J=4.4, 2.8 Hz, 1H), 2.98-3.02 (m, 2H), 1.18-1.19 (d, J=7.2 Hz, 12H). MS (ESI) m/z 310.3 (M+H)^+. Melting point: 188.1-189.1° C.

[2] = Stability at room temperature determined by LC/MS; assay type: physicochemical; settings: after three months
Method: as §1

[3] = rats, oral dosing; cited from earlier work

SMILES | solubility ([1]; phosphate buffered saline (PBS), aqueous buffer, read-out: solubility in phosphate buffered saline (PBS)) [µg/mL] | solubility ([1]; water, read-out: solubility in water) [µg/mL] | degradation as an aqueous solution ([2]; aqueous solution) | degradation as a solid ([2]; solid) | administered drug undergoing first pass metabolism [3]
CC(C)c1cccc(C(C)C)c1OC(=O)OC[C@H](N)C(=O)O.Cl [compound (6), (S)-2-Amino-3-(2,6-Diisopropylphenoxy-carbonyloxy)-Propanoic Acid Hydrochloride] | 8180 | 7580 | no degradation | no degradation | –
CC(C)c1cccc(C(C)C)c1O [propofol, 2,6-diisopropylphenol] | – | – | – | – | approximately 90%
